From patent publication US20060235062A1, “Novel heterocyclic analogs of diphenylethylene compounds” (THERACOS, INC., priority 2002, published 2006)

Key:
PPAR-gamma = target: T1, PPAR-gamma (Homo sapiens, UniProt P37231); details: Rocchi et al, Mol Cell 8:737-47, 2001; cited from earlier work
T1 sequence (P37231 1-505): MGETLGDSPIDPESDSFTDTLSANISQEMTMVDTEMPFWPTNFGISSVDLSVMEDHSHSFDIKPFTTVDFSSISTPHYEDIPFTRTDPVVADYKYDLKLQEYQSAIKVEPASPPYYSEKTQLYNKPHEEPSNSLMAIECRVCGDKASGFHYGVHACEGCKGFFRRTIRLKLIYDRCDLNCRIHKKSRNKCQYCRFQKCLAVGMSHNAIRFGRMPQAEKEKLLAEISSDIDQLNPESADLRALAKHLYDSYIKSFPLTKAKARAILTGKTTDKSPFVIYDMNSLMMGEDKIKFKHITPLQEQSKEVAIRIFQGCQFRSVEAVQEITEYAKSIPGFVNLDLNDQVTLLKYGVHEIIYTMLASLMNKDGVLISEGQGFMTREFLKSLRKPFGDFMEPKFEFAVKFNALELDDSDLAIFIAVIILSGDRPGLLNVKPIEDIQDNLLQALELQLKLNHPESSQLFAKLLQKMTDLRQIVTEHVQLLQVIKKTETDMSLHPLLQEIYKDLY

3T3-L1 adipocytes = experiment: Glucose uptake in differentiated 3T3-L1 adipocytes; format: cell-based
Method: Referring to FIG. 8 glucose uptake in 3T3-L1 differentiated adipocytes was measured after treatment with the test compound. The assay was conducted according to the method of Tafuri, Endocrinology, 137, 4706-4712 (1996). The serum-starved cells were treated with the test compound for 48 hours at different concentrations, then washed and incubated in glucose-free media for 30 minutes at 37° C. Then ^14C-deoxyglucose was added and uptake was monitored for 30 minutes under incubation. After washing, the cells were lysed (0.1% SIDS) and counted.
Basal glucose uptake was measured in differentiated 3T3-L1 adipocytes following the protocol of Tafuri (6) with modifications. Briefly, 3T3-L1 fibroblasts, obtained from ATCC (Manassas, Va.), were differentiated to adipocytes by treating cells with porcine insulin (1 μg/ml for 4 days), dexamethasone (0.25 μM for first 2 days) and isobutyl methyl xanthine (IBMX, 0.5 mM for first 2 days) (all from Sigma Chemicals, St Louis, Mo.) following the protocol of Frost and Lane (7). Differentiated adipocytes were incubated in Dulbecco's Modified Eagle Medium (DMEM) containing 10% fetal bovine serum (GibcoBRL, Gaithersburg, Md.) with various concentrations of Compound 11 or vehicle (0.1% DMSO) for 48 h in 24-well plates, in triplicate. Cells were washed with phosphate buffered saline (PBS, 150 mM NaCl, 1 mM KH2PO4, 3 mM Na2HPO4; pH 7.4) and incubated in glucose-free DMEM for 2 h at 37° C. The cells were washed 3 times with Krebs Ringer Phosphate Buffer (KRP). Glucose uptake was initiated by addition of 0.25 μCi 2-^14C(U)-deoxy-D-glucose (300 μCi/mmol, American Radiolabeled Chemicals Inc., St Louis, Mo.) per well and the cells incubated for 10 min at room temperature in the presence of 0.1 mmol cold 2-deoxy-D-glucose. Finally, the cells were washed three times with ice-cold PBS containing 10 mM cold glucose, lysed with 0.5% SDS, and counted in a scintillation counter (Beckman LS6500).

COX-2 = target: T2, COX-2 (Mus musculus, UniProt Q05769); experiment: LPS-induced COX-2 activity in RAW cells (PGE2 production); format: cell-based; details: 0.1-100 μM, FIG. 12
T2 sequence (Q05769 18-604): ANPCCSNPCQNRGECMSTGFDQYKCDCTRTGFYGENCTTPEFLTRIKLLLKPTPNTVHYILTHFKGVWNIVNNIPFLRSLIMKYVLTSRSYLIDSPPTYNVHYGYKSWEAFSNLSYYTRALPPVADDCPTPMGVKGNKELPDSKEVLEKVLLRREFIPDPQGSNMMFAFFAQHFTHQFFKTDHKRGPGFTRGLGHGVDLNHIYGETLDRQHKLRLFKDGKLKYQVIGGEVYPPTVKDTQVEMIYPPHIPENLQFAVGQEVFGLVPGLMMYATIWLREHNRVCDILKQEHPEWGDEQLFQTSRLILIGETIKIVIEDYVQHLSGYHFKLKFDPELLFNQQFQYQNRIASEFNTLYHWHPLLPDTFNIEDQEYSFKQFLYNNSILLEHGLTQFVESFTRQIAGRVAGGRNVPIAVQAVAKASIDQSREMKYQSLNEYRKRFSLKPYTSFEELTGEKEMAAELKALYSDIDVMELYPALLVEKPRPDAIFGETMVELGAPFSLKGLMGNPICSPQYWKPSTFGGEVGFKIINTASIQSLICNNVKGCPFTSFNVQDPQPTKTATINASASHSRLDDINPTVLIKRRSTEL
Method: (§1) After 1 hour LPS (0.1 pg/mL) was added and cells were incubated an additional 6 hours. Cell supernatant was then collected, aliquoted and frozen at −70° C., and aliquots used to determine COX-2 and COX-1 activity. Compound 11, but not rosiglitazone, inhibited the activity of COX-2 (as measured by PGE2 production in a 50 μl sample).

COX-1 = target: T3, COX-1 (Mus musculus, UniProt P22437); experiment: COX-1 activity in RAW cells; format: cell-based; details: 0.1-100 μM
T3 construct: aliquots used to determine COX-2 and COX-1 activity; endogenous in cells; host or cells: RAW (RAW 264.7) cells
T3 sequence (P22437 27-602): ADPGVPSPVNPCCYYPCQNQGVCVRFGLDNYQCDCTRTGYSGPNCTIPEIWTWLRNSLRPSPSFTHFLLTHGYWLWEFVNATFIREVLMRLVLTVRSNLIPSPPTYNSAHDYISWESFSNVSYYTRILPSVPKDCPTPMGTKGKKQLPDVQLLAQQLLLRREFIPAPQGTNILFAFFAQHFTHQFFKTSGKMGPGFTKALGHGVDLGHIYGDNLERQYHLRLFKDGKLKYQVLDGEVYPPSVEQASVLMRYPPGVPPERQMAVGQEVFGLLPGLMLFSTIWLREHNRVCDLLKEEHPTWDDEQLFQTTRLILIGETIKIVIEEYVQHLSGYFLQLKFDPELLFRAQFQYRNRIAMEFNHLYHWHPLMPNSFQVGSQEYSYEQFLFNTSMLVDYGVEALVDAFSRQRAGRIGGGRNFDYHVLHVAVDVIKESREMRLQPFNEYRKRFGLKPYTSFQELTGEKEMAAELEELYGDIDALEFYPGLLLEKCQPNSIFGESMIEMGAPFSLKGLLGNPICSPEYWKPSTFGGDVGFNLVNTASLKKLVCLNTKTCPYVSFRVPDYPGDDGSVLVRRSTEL
Method: as §1

IkappaB = experiment: LPS-stimulated phosphorylation of IkappaB in RAW 264.7 cells; format: cell-based; details: RAW 264.7 cells, 3, 10 or 30, LPS plus IFN-gamma, anti-phospho-IkappaB blot
NF-kB p65 = NF-kB p65 activation in LPS-stimulated RAW cells (ELISA); format: cell-based; details: 10 μM, 1 μg/ml LPS 15 min, FIG. 15
HepG2 cells = experiment: Glycogen synthesis in HepG2 cells; format: cell-based
db/db mice = details: db/db mice, 50 mg/kg/day orally, 14 days, FIG. 16A
3T3-L1 fibroblasts = experiment: Adipogenesis (triglyceride accumulation) in 3T3-L1 fibroblasts; details: 3T3-L1 fibroblasts, 0.1, 1, 10 μM, no dexamethasone, insulin, IBMX, FIG. 23A
Method: After two days of growth in 6-well plates, cells were treated either with vehicle (0.1% DMSO) or with compounds for ten days. Fresh medium with compounds or vehicle was replenished every 48 h. Cells were washed with PBS twice and fixed in 10% formalin (Sigma) in PBS. After washing in PBS, cells were stained with freshly diluted Oil Red O in isopropanol for 1 h at room temperature. The cells were washed five times with PBS and visualized under an Olympus BH2 microscope. Quantitative accumulation of triglyceride was also measured under similar experimental conditions, except in this case cells were plated in 100-mm tissue culture dishes. Triglyceride was extracted with methanol:chloroform (2:1) mixture. […] Extracted triglyceride was measured by a colorimetric assay (GPO-Trinder, Sigma) according to manufacturer instructions.
After 14 days cells were stained with Oil Red O, counterstained with methylene blue for visual assessment (FIG. 23B) and assayed for triglyceride accumulation.

Row | SMILES | less affinity for PPAR-gamma (PPAR-gamma) | effect on insulin-stimulated glucose uptake (3T3-L1 adipocytes; 5 μM with increasing insulin, FIG. 20B) | % Glucose uptake 0.1 μm (3T3-L1 adipocytes; 0.1 μm, average of quadruplicate ± SD) | % Glucose uptake 1.0 μm (3T3-L1 adipocytes; 1.0 μm, average of quadruplicate ± SD) | inhibition of COX-2 activity (PGE2 production) (COX-2) | inhibition of COX-1 activity (COX-1) | inhibition of the phosphorylation of IkappaB (IkappaB) | inhibition of the activation of NF-kB (p65) (NF-kB p65) | glycogen synthesis, decrease (HepG2 cells; HepG2, 10 μM, 48 h, FIG. 25A) [fold] | increase in glycogen synthesis over baseline (HepG2 cells; HepG2, concentrations higher than 30 μM, ± SD, data not shown) [fold] | blood glucose lowering effect (db/db mice) | maximal triglyceride accumulated, increase over control (3T3-L1 fibroblasts) [fold]
1 | CC(C)C[C@H](NC(=O)OCC1c2ccccc2-c2ccccc21)C(=O)O [FMOC-L-Leucine] | approximately 400 fold | – | – | – | – | – | – | – | – | – | – | –
2 | CN(CCOc1ccc(CC2SC(=O)NC2=O)cc1)c1ccccn1 (stereo not drawn) [rosiglitazone, reference compound] | – | additive, not synergistic | 204.2 ± 8.5 % basal of the non treated cells | 214.7 ± 36.5 % basal of the non treated cells | not | Neither compound inhibited | not | did not inhibit | 0.9 | 1.4±0.06 | dramatic, comparable blood glucose lowering effects | 9.22
